Experiments:
[1] = preclinical trials in vivo
Description: Gimatecan is a new anticancer compound that has shown a high therapeutic index in preclinical trials in vivo. Moreover, gimatecan is characterised by an anticancer activity that is maintained with different administration regimens, both intermittent and prolonged.

[2] = system: uterine cancers, both of the cervix and the endometrium; experiment: European phase I trial of gimatecan as single therapeutic agent in patients with advanced cancers; assay type: in vivo
Method: In the light of this preclinical evidence, a European phase I trial was conducted in which gimatecan was administered as a single therapeutic agent with different administration regimens. The patients studied were affected by advanced cancers for which curative or standard therapy was no longer indicated. Although the aim of the study was to assess the tolerability of the treatment with gimatecan, in the course of this clinical trial gimatecan produced a number of lasting objective clinical responses. Particularly worthy of mention are the responses of a number of patients with uterine cancers, both of the cervix and the endometrium, including forms which had received substantial previous treatments and presented metastatic disease.
These responses were subjected to two independent assessments by experts not taking part in the clinical trial, who confirmed the observations.

CC[C@@]1(O)C(=O)OCc2c1cc1n(c2=O)Cc2c-1nc1ccccc1c2/C=N/OC(C)(C)C [gimatecan, 7-terbutoxyiminomethylcamptothecin]
therapeutic index [1]: high | objective clinical response ([2]; patients with uterine cancers (cervix and endometrium), incl. substantially pretreated and metastatic disease, assessed by computed tomography, confirmed by two independent assessments): partial responses | reduction of the tumour lesion or lesions ([2]; responding patients with uterine cancers, diagnostic imaging such as computed tomography, definition of partial response): more than 30%
